Experimental data from patent publication US8735387B2, “Oxazolopyrimidines as Edg-1 receptor agonists” (Sanofi, priority 2008, dated 2014).

Each molecule was assayed against T1, human Edg-1 receptor (Homo sapiens, UniProt P21453) (assay: GTP-γ-S assay using human Edg-1 receptors (scintillation proximity assay, membrane preparation from CHO Flp-In cell line)). Conditions: example compound at 10 μM; relative to 10 μM S1P; GTP-γ-S SPA, human Edg-1 membranes.
T1 construct: expressed in transfected cells; membrane preparation
T1 sequence (P21453 whole entry): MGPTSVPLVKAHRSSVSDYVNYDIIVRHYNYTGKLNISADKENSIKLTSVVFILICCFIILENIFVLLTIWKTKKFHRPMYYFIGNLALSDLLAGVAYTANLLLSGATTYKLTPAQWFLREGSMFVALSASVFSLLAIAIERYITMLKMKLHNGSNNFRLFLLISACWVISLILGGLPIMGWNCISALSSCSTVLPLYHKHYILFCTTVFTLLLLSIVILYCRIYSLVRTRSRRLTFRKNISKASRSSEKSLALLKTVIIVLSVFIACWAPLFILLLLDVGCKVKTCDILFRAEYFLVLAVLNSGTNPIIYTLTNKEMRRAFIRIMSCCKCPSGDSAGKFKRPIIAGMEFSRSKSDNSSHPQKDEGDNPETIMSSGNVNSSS
Type: biochemical
Summary of the method: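 Membranes came from Flp-In CHO cells constitutively expressing human Edg-1 carrying an N-terminal FLAG tag. Compound-induced receptor activation was read as GTP-γ-S binding in a scintillation proximity format.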

SMILES | % Activation (Edg-1 receptor activation in percent of the activation by 10 μM S1P)
CCCOc1nc(Cc2ccc(Cl)cc2)nc2oc(-c3ccc(Cl)nc3)nc12 [Example 201] | 68%
CCCOc1nc(CN2CC[C@H](F)C2)nc2oc(-c3cccc(F)c3)nc12 [Example 202] | 109%
CCCOc1nc(Cn2cnc(C#N)n2)nc2oc(-c3cccc(F)c3)nc12 [Example 203] | 79%
CCCOc1nc(Cn2cncn2)nc2oc(-c3cccc(F)c3)nc12 [Example 204] | 79%
CC(C)Oc1nc(CN2CCOCC2)nc2oc(-c3cccc(F)c3)nc12 [Example 205] | 115%
CCCOc1nc(Cc2ccc(Cl)cc2)nc2oc(-c3cc(C)c(OCC(O)CNC4CCN(CC(C)C)CC4)c(C)c3)nc12 (stereo not drawn) [Example 206] | 67%
CCCOc1nc(Cc2ccc(Cl)cc2)nc2oc(-c3ccc(OCC(O)CN)c(Cl)c3)nc12 (stereo not drawn) [Example 207] | 302%
CCOc1nc(Cc2ccc(Cl)cc2)nc2oc(-c3cc(C)c(OCC(O)CNC(C)=O)c(C)c3)nc12 (stereo not drawn) [Example 208] | 111%
CCCOc1nc(Cc2ccc(Cl)cc2)nc2oc(-c3cc(C)c(OCC(O)CNCc4ccccc4)c(C)c3)nc12 (stereo not drawn) [Example 209] | 110%
CCCOc1nc(Cc2ccc(Cl)cc2)nc2oc(-c3ccc(OCC(O)CNCc4ccccc4)c(Cl)c3)nc12 (stereo not drawn) [Example 210] | 94%
CCCOc1nc(Cc2ccc(Cl)cc2)nc2oc(-c3ccc(OCC(O)CNC4CCCCC4)c(Cl)c3)nc12 (stereo not drawn) [Example 211] | 112%
CCCOc1nc(Cc2ccc(Cl)cc2)nc2oc(-c3cc(C)c(OCC(O)CNC(=O)CO)c(C)c3)nc12 (stereo not drawn) [Example 212] | 78%
CCCOc1nc(Cc2ccccc2)nc2oc(-c3cccc(OCCO)c3)nc12 [Example 213] | 101%
CCCOc1nc(Cc2ccc(Cl)cc2)nc2oc(-c3cc(C)c(OCC(O)CNC(C)=O)c(C)c3)nc12 (stereo not drawn) [Example 214] | 106%
CCCOc1nc(Cc2ccccc2)nc2oc(-c3cccc(O)c3)nc12 [Example 215] | 96%
CCCC(=O)NCC(O)COc1c(C)cc(-c2nc3c(OCC)nc(Cc4ccc(Cl)cc4)nc3o2)cc1C (stereo not drawn) [Example 216] | 105%
CCOc1nc(Cc2ccc(Cl)cc2)nc2oc(-c3cc(C)c(OCC(O)CNC(=O)CC(C)C)c(C)c3)nc12 (stereo not drawn) [Example 217] | 78%
CCCOc1nc(Cc2ccc(Cl)cc2)nc2oc(-c3ccc(OC)c(Cl)c3)nc12 [Example 218] | 42%
CCCOc1nc(Cc2ccc(Cl)cc2)nc2oc(-c3ccc(OCC(=O)O)c(Cl)c3)nc12 [Example 219] | 107%
CCCOc1nc(Cc2ccc(Cl)cc2)nc2oc(-c3cc(C)c(OCC(O)CNC(=O)CC(C)C)c(C)c3)nc12 (stereo not drawn) [Example 220] | 69%
CCOc1nc(Cc2ccc(Cl)cc2)nc2oc(-c3cc(C)c(OCC(O)CNCC(c4cccnc4)N(C)C)c(C)c3)nc12 (stereo not drawn) [Example 221] | 84%
CCCOc1nc(Cc2ccc(Cl)cc2)nc2oc(-c3cc(C)c(OCCCNCCS(N)(=O)=O)c(C)c3)nc12 [Example 223] | 92%
CCCOc1nc(Cc2ccc(Cl)cc2)nc2oc(-c3cc(C)c(OCCCNCCC(=O)O)c(C)c3)nc12 [Example 224] | 113%
CCCOc1nc(Cc2ccc(Cl)cc2)nc2oc(-c3cc(C)c(OCCCNCCO)c(C)c3)nc12 [Example 225] | 100%
CCOc1nc(Cc2ccc(Cl)cc2)nc2oc(-c3cc(C)c(OCC(=O)N[C@@H](CO)C(=O)O)c(C)c3)nc12 [Example 226] | 98%
CCCOc1nc(Cc2ccc(Cl)cc2)nc2oc(-c3cc(C)c(OCCCNCc4nnn[nH]4)c(C)c3)nc12 [Example 227] | 142%

SMILES | % Activation (Edg-1 receptor activation in percent of the activation by 10 μM S1P)
CCOc1nc(Cc2ccc(Cl)cc2)nc2oc(-c3cc(C)c(OCC(=O)N4CC(C(=O)O)C4)c(C)c3)nc12 [Example 228] | 107%
CCCOc1nc(Cc2ccc(Cl)cc2)nc2oc(-c3cc(C)c(OCCCN[C@@H](CCSC)C(=O)OC)c(C)c3)nc12 [Example 229] | 70%
CCCOc1nc(Cc2ccc(Cl)cc2)nc2oc(-c3cc(C)c(OCCCNCCC(=O)OC(C)(C)C)c(C)c3)nc12 [Example 230] | 101%
CCCOc1nc(Cc2ccc(Cl)cc2)nc2oc(-c3cc(C)c(OCC(=O)N4CC[C@H](O)C4)c(C)c3)nc12 [Example 231] | 104%
CCCOc1nc(Cc2ccc(Cl)cc2)nc2oc(-c3cc(C)c(OCC(=O)N4CC[C@@H](O)C4)c(C)c3)nc12 [Example 232] | 125%
CCCOc1nc(Cc2ccc(Cl)cc2)nc2oc(-c3cc(C)c(OCC(=O)OCC)c(C)c3)nc12 [Example 233] | 79%
CCOc1nc(Cc2ccc(Cl)cc2)nc2oc(-c3cc(C)c(OCC(=O)NCCN4CCOCC4)c(C)c3)nc12 [Example 234] | 106%
CCCOc1nc(Cc2ccc(Cl)cc2)nc2oc(-c3cc(C)c(OCCc4c(C)noc4C)c(C)c3)nc12 [Example 235] | 59%
CCOc1nc(Cc2ccc(Cl)cc2)nc2oc(-c3cc(C)c(OCC(O)CN4CCOCC4)c(C)c3)nc12 (stereo not drawn) [Example 236] | 102%
CCCOc1nc(Cc2ccc(Cl)cc2)nc2oc(-c3cc(C)c(OCC(O)CNCCC(=O)O)c(C)c3)nc12 (stereo not drawn) [Example 237] | 115%
CCOc1nc(Cc2ccc(Cl)cc2)nc2oc(-c3cc(C)c(OCC(O)CN(CC)CC)c(C)c3)nc12 (stereo not drawn) [Example 238] | 71%
CCOc1nc(Cc2ccc(Cl)cc2)nc2oc(-c3cc(C)c(OCC(=O)N4CCC(C(=O)O)C4)c(C)c3)nc12 (stereo not drawn) [Example 239] | 86%
CCCOc1nc(Cc2ccc(Cl)cc2)nc2oc(-c3cc(C)c(OCC(=O)NCCC(=O)O)c(C)c3)nc12 [Example 241] | 128%
CCCOc1nc(Cc2ccc(Cl)cc2)nc2oc(-c3cc(C)c(OCC(=O)N4CC(C(=O)O)C4)c(C)c3)nc12 [Example 242] | 106%
CCCOc1nc(Cc2ccc(Cl)cc2)nc2oc(-c3cc(C)c(OCC(=O)N4CCC(C(=O)O)C4)c(C)c3)nc12 (stereo not drawn) [Example 243] | 106%
CCCOc1nc(Cc2ccc(Cl)cc2)nc2oc(-c3cc(C)c(OCC(=O)NCCO)c(C)c3)nc12 [Example 244] | 97%
CCCOc1nc(Cc2ccc(Cl)cc2)nc2oc(-c3cc(C)c(OCC(=O)N4CCC[C@H]4C(=O)O)c(C)c3)nc12 [Example 245] | 144%
CCOc1nc(Cc2ccc(Cl)cc2)nc2oc(-c3cc(C)c(OCC(=O)N4CC(C(=O)OC)C4)c(C)c3)nc12 [Example 246] | 111%
CCCOc1nc(Cc2ccc(Cl)cc2)nc2oc(-c3cc(C)c(OCC(=O)OCC(=O)O)c(C)c3)nc12 [Example 247] | 110%
CCCOc1nc(Cc2ccc(Cl)cc2)nc2oc(-c3cc(C)c(OCC(=O)OC)c(C)c3)nc12 [Example 248] | 89%
CCOc1nc(Cc2ccc(Cl)cc2)nc2oc(-c3cc(C)c(OCC(=O)NCCN(C)C)c(C)c3)nc12 [Example 249] | 104%
CCOc1nc(Cc2ccc(Cl)cc2)nc2oc(-c3cc(C)c(OCC(=O)NCC(=O)OC(C)(C)C)c(C)c3)nc12 [Example 250] | 72%
CCCOc1nc(Cc2ccc(Cl)cc2)nc2oc(-c3cc(C)c(OCCCC(=O)O)c(C)c3)nc12 [Example 251] | 112%
CCCOc1nc(Cc2ccc(Cl)cc2)nc2oc(-c3cc(C)c(OCC(=O)NCc4ccco4)c(C)c3)nc12 [Example 252] | 102%
CCOc1nc(Cc2ccc(Cl)cc2)nc2oc(-c3cc(C)c(OCC(=O)O)c(C)c3)nc12 [Example 253] | 79%
CCCOc1nc(Cc2ccc(Cl)cc2)nc2oc(-c3cc(C)c(OCC(=O)NCC4CC4)c(C)c3)nc12 [Example 254] | 86%

Same assay, conditions: example compound at 10 μM; relative to 10 μM S1P; GTP-γ-S SPA, human Edg-1 membranes; read-out: % Activation (Edg-1 receptor activation in percent of the activation by 10 μM S1P)

SMILES | activation at 10 µM
CCCOc1nc(Cc2ccc(Cl)cc2)nc2oc(-c3cc(C)c(OCCCN4CCOCC4)c(C)c3)nc12 [Example 200, 5-(4-Chloro-benzyl)-2-[3,5-dimethyl-4-(3-morpholin-4-yl-propoxy)-phenyl]-7-propoxy-oxazolo[5,4-d]pyrimidine] | 79%
CCOc1nc(Cc2ccc(Cl)cc2)nc2oc(-c3cc(C)c(OCC(=O)NCC(=O)O)c(C)c3)nc12 [Example 240, (2-{4-[5-(4-chloro-benzyl)-7-ethoxy-oxazolo[5,4-d]pyrimidin-2-yl]-2,6-dimethyl-phenoxy}-acetylamino)-acetic acid] | 123%
